# Reference: ChEMBL document CHEMBL5375961, “Design, Synthesis, and Biological Evaluation of Trisubstituted Piperazine Derivatives as Noncovalent Severe Acute Respiratory Syndrome Coronavirus 2 Main Protease Inhibitors with Improved Antiviral Activity and Favorable Druggability” (J Med Chem, 2023)
# System: SARS-CoV-2
# Assay: Antiviral activity against SARS-CoV-2 Delta (B.1.617.2) infected in African green monkey Vero E6 cells assessed as reduction in viral replication treated for 1 hr followed by replacement with fresh medium containing compounds measured after 23 hrs in presence of CP-100356 by qRT-PCR analysis
# Format: functional, organism-based
# Details: Severe acute respiratory syndrome coronavirus 2, Delta (B.1.617.2), Vero C1008
structure (smiles),measurement,value
CC(C)(C)[C@H](NC(=O)C(F)(F)F)C(=O)N1CC2(C[C@H]1C(=O)N[C@H](C#N)C[C@@H]1CCNC1=O)SCCS2,EC50,34 nM
